Assay results reported in patent publication US20260250325A1, “Antiviral Polypeptide Membrane Fusion Inhibitor, and Preparation Method and Application Thereof” (priority 2025, published 2026).
Read-outs that look alike come from different tables or passages of the source. Where a SMILES comes first, the peptide text is derived from it.

Key:
[1] = Cytotoxicity test in HEp-2 cells (CCK8 cell viability); type: cell-based; conditions: human
Procedure: (§1) Human Epithelial Pharyngeal Carcinoma Cells (HEp-2) were from the American Type Culture Collection (ATCC), with a catalog number CCL-23. The cells were cultured in a DMEM culture solution in which 10% fetal bovine serum, 1% sodium pyruvate, 1% nonessential amino acids, 2 mM glutamine, 100 U/mL penicillin, and 100 μg/mL streptomycin were added. The RSV A long virus strain was from the ATCC, with a catalog number VR-26.
A cytotoxicity test and an antiviral test were performed in parallel. The HEp-2 cells were inoculated in the microplate at a density of 30,000 cells per well, and cultured overnight in the 37° C. incubator with 5% CO2. On the next day, the diluted test sample was added. The cell control (cells, without compound treatment) and a culture solution control (culture solution only, without cell or compound treatment) were set. A final concentration of DMSO in the culture solution was 0.5%. The cells were cultured for 1 day in the 37° C. incubator with 5% CO2. Cell viability was detected by using a cell viability detection kit CCK8.
(§2) The raw data for plaque counts and cell viability tests were used for analyzing the antiviral activity and cytotoxicity of the test samples, respectively. A calculation formula was shown as follows.
cell survival rate=(sample value-culture medium control average value)/(cell control average value-culture medium control average value)×100
(§3) Non-linear fitting analysis was performed on the inhibition rate of the sample by using GraphPad Prism (version 10), so as to calculate the IC50 and CC50 values for the sample.
CC50: in the in-vitro antiviral activity experiment, CC50 was used to measure the toxicity of the compound to be tested to the Hep-2 cells. To be precise, when the compound to be tested was at a specific concentration, 50% of the Hep-2 cells was caused to die, and this concentration was defined as the CC50. A fitting formula was log (inhibitor) vs. response-Variable slope (four parameters).

RSV A long virus strain = type: cell-based
Procedure: In this embodiment, an RSV-A long virus strain was used as an infection virus in the present disclosure. The anti-RSV activity of the synthesized polypeptide was determined through CPE detection.
The inhibitory activity of the compounds of Table 1-1-Table 1-5, positive polypeptide in Table 1-11, and positive control T-118 against the RSV-A long virus strain was detected.
as §1
This study used a plaque reduction experiment to detect the in-vitro activity of a test sample against the RSV A long virus strain. The test sample and a control compound were tested at 8 concentrations in duplicated wells. The HEp-2 cells were digested with trypsin and then diluted to a concentration of 300,000 cells per milliliter by using an experimental culture solution. The diluted cells were added to a 96-well cell test board, with 100 μL per well, corresponding to 30000 cells per well. The cells were cultured overnight in a 37° C. incubator with 5% CO2. On the second day, the test sample was diluted in an experimental culture medium at a fold ratio. The sample diluted at a fold ratio and an equal volume of virus (100 PFU per well) were well mixed and incubated at 37° C. in 5% CO2 for 1 h. Then, the culture solution in the 96-well cell test board was discarded, the sample virus mixed solution (200 μL) was added to the 96-well cell culture plate, and incubated at 37° C. in 5% CO2 for 2 hours. After 2 h, the sample virus mixed solution was discarded, and 200 μL of maintenance culture medium containing 0.8% CMC and the corresponding concentration of the test sample was added. A cell control (cells, without compound treatment or viral infection) and a viral control (cell infection virus, without compound treatment) were set. The cells were cultured for 1 day in the 37° C. incubator with 5% CO2. One day after viral infection, the culture medium was discarded, the cells were fixed with 4% paraformaldehyde, and then permeabilization was performed with 0.5% Triton X-100. After the plate was washed with DPBS, an RSV-specific antibody (RSV antibody, diluted 1:3000) was added and incubated at 37° C. for 1 h. Then, a secondary antibody (donkey anti-goat IgG, diluted 1:500) and incubated at 37° C. for 1 h. The secondary antibody was discarded, a TrueBlue solution was added, dyeing was performed for 10 min; and the plate was washed with running water and then air-dried, and the number of spots in each well was counted by using a microplate imaging counter. Raw data was used for calculating the antiviral activity of the samples.
as §2
% inhibition rate=100−(sample value-cell control average value)/(virus control average value-cell control average value)×100%
as §3
IC50: in an in-vitro antiviral activity experiment, IC50 represented an inhibition ability indicator of a compound to be tested against the Hep-2 cells infected by the RSV A long virus strain.

[2] = HEp-2 cells, CCK8, 1 day, read-out: CC50
[3] = RSV A long virus strain, HEp-2 cells, plaque reduction, 1 day, read-out: IC50

| Compound | CC50 at 1 day [1] [µM] | IC50 (RSV A long virus strain) [µM] | CC50 at 1 day [1, 2] [µM] | IC50 (RSV A long virus strain; [3]) [µM] |
| --- | --- | --- | --- | --- |
| CC[C@H](C)[C@H](NC(=O)[C@H](CCCCN)NC(=O)[C@H](CC(C)C)NC(=O)[C@H](CC(C)C)NC(=O)[C@H](CO)NC(=O)[C@H](C)NC(=O)[C@H](CC(=O)O)NC(=O)[C@H](Cc1ccccc1)NC(C)=O)C(=O)N[C@@H](CCC(=O)O)C(=O)N[C@@H](CCC(=O)O)C(=O)N[C@@H](CCC(=O)O)C(=O)N[C@@H](CCCCN)C(=O)N[C@@H](CCCCN)C(=O)N[C@@H](CCCCN)C(=O)N[C@H](C(=O)N[C@@H](CCC(=O)O)C(=O)N[C@@H](CCC(=O)O)C(=O)N[C@@H](CC(C)C)C(=O)N[C@@H](CC(C)C)C(=O)N[C@@H](CCCCN)C(=O)N[C@@H](CC(C)C)C(=O)N[C@@H](Cc1c[nH]cn1)C(=O)N[C@@H](CC(N)=O)C(=O)N[C@@H](CCC(=O)O)C(=O)N[C@@H](CO)C(=O)N[C@@H](CC(=O)O)C(=O)N[C@@H](CCCCN)C(=O)N[C@@H](CCCCN)C(=O)N[C@@H](CC(C)C)C(=O)N[C@@H](CCC(=O)O)C(=O)N[C@@H](CCC(=O)O)C(=O)N[C@H](C(N)=O)C(C)C)[C@@H](C)CC [Compound 4] (Ac-FDASLLKIEEEKKKIEELLKLHNESDKKLEEV-NH2) | > 8 | > 8 |  |  |
| CC[C@H](C)[C@H](NC(=O)[C@H](CCCCN)NC(=O)[C@H](CCCCN)NC(=O)[C@H](CC(C)C)NC(=O)[C@H](CO)NC(=O)[C@H](CCC(=O)O)NC(=O)[C@H](CCC(=O)O)NC(=O)[C@@H](NC(=O)[C@H](CCCCN)NC(=O)[C@H](CCCCN)NC(=O)[C@H](CC(N)=O)NC(=O)[C@@H](NC(=O)[C@H](CCC(=O)O)NC(=O)[C@H](CCC(=O)O)NC(=O)[C@@H](NC(=O)[C@H](CCCCN)NC(=O)[C@H](CCCCN)NC(=O)[C@H](CC(=O)O)NC(=O)[C@H](Cc1ccccc1)NC(=O)[C@H](CCC(=O)O)NC(=O)[C@H](CC(=O)O)NC(=O)[C@H](Cc1c[nH]c2ccccc12)NC(C)=O)[C@@H](C)CC)C(C)C)[C@@H](C)CC)C(=O)N[C@@H](CCC(=O)O)C(=O)N[C@@H](CCC(=O)O)C(=O)N[C@@H](CO)C(=O)N[C@@H](CC(=O)O)C(=O)N[C@@H](CCCCN)C(=O)N[C@@H](CCCCN)C(=O)N[C@@H](CC(C)C)C(=O)N[C@@H](CCC(=O)O)C(=O)N[C@@H](CCC(=O)O)C(=O)N[C@H](C(=O)N[C@@H](CC(N)=O)C(=O)N[C@@H](CCCCN)C(=O)N[C@@H](CCCCN)C(=O)N[C@@H](CC(C)C)C(N)=O)C(C)C [Compound 5] (Ac-WDEFDKKIEEVNKKIEESLKKIEESDKKLEEVNKKL-NH2) |  |  | > 8 | 1.12 |
| CC[C@H](C)[C@H](NC(=O)[C@H](CO)NC(=O)[C@H](CCC(=O)O)NC(=O)[C@H](CC(N)=O)NC(=O)[C@@H](NC(=O)[C@H](CCCCN)NC(=O)[C@H](CO)NC(=O)[C@H](CO)NC(=O)[C@H](C)NC(=O)[C@H](CC(=O)O)NC(=O)[C@H](CC(N)=O)NC(=O)[C@@H](NC(=O)[C@H](CCC(=O)O)NC(=O)[C@H](CC(C)C)NC(=O)[C@H](CCCNC(=N)N)NC(=O)[C@H](Cc1ccccc1)NC(=O)[C@H](C)NC(=O)[C@H](CC(=O)O)NC(=O)[C@H](C)NC(C)=O)C(C)C)[C@@H](C)CC)C(=O)N[C@@H](CCC(=O)O)C(=O)N[C@@H](CCC(=O)O)C(=O)N[C@@H](CO)C(=O)N[C@@H](CC(C)C)C(=O)N[C@@H](CC(C)C)C(=O)N[C@@H](CO)C(=O)N[C@@H](CC(C)C)C(=O)N[C@@H](CCC(=O)O)C(=O)N[C@@H](CCCCN)C(=O)N[C@@H](CC(C)C)C(=O)N[C@@H](Cc1c[nH]cn1)C(=O)N[C@@H](CC(N)=O)C(=O)N[C@H](C(=O)N[C@@H](CC(N)=O)C(=O)N[C@@H](C)C(=O)N[C@H](C(=O)N[C@@H](C)C(N)=O)[C@@H](C)O)C(C)C [Compound 6] (Ac-ADAFRLEVNDASSKINESIEESLLSLEKLHNVNATA-NH2) | > 8 | > 8 |  |  |
| CC[C@H](C)[C@H](NC(=O)[C@H](Cc1ccccc1)NC(=O)[C@H](C)NC(=O)[C@H](CC(=O)O)NC(=O)[C@H](Cc1ccccc1)NC(C)=O)C(=O)N[C@@H](CCC(N)=O)C(=O)N[C@@H](CCC(=O)O)C(=O)N[C@H](C(=O)N[C@@H](CC(N)=O)C(=O)N[C@H](C(=O)N[C@@H](CC(N)=O)C(=O)N[C@@H](CCC(=O)O)C(=O)N[C@@H](CC(=O)O)C(=O)N[C@@H](CCC(N)=O)C(=O)N[C@@H](CO)C(=O)N[C@@H](CC(C)C)C(=O)N[C@@H](CCC(=O)O)C(=O)N[C@@H](CCC(N)=O)C(=O)N[C@@H](CO)C(=O)N[C@@H](CC(=O)O)C(=O)N[C@@H](CCC(=O)O)C(=O)N[C@@H](CC(C)C)C(=O)N[C@@H](CC(C)C)C(=O)N[C@@H](CC(C)C)C(=O)N[C@@H](CCC(=O)O)C(=O)N[C@@H](CC(C)C)C(=O)N[C@@H](Cc1c[nH]cn1)C(=O)N[C@@H](CC(C)C)C(=O)N[C@@H](CC(C)C)C(=O)N[C@@H](Cc1c[nH]cn1)C(=O)N[C@@H](CO)C(=O)N[C@@H](CC(C)C)C(=O)N[C@@H](CC(C)C)C(=O)N[C@@H](Cc1c[nH]cn1)C(N)=O)C(C)C)[C@@H](C)CC [Compound 7] (Ac-FDAFIQEINVNEDQSLEQSDELLLELHLLHSLLH-NH2) | > 8 | > 8 |  |  |
| CC[C@H](C)[C@H](NC(=O)[C@H](CCC(=O)O)NC(=O)[C@H](CCC(=O)O)NC(=O)[C@H](CC(C)C)NC(=O)[C@H](CO)NC(=O)[C@H](CCC(=O)O)NC(=O)[C@H](CCC(=O)O)NC(=O)[C@@H](NC(=O)[C@H](CCCCN)NC(=O)[C@H](CCC(=O)O)NC(=O)[C@H](CC(N)=O)NC(=O)[C@@H](NC(=O)[C@H](CCC(N)=O)NC(=O)[C@H](CC(N)=O)NC(=O)[C@@H](NC(=O)[C@H](CCCCN)NC(=O)[C@H](CCC(N)=O)NC(=O)[C@H](CC(N)=O)NC(=O)[C@H](Cc1ccccc1)NC(=O)[C@H](CCC(=O)O)NC(=O)[C@H](C)NC(=O)[C@H](Cc1ccccc1)NC(C)=O)[C@@H](C)CC)C(C)C)[C@@H](C)CC)C(=O)N[C@@H](CCCNC(=N)N)C(=O)N[C@@H](CCCCN)C(=O)N[C@@H](CO)C(=O)N[C@@H](CC(=O)O)C(=O)N[C@@H](CCC(=O)O)C(=O)N[C@@H](CCC(=O)O)C(=O)N[C@@H](CC(C)C)C(=O)N[C@@H](Cc1c[nH]cn1)C(=O)N[C@@H](CC(N)=O)C(=O)N[C@H](C(=O)N[C@@H](CC(N)=O)C(=O)N[C@@H](C)C(=O)N[C@H](C(=O)N[C@H](C(N)=O)[C@@H](C)O)[C@@H](C)O)C(C)C [Compound 8] (Ac-FAEFNQKINQVNEKIEESLEEIRKSDEELHNVNATT-NH2) |  |  | > 8 | 3.77 |
